In patent US20090318424A1, “NOVEL COMPOUNDS” (priority 2006, published 2009):

Structure (SMILES)	melting point
Cc1ccc(C(=O)N(C)C)cc1-c1nc(N2CCN(C)CC2)nc2c1CNC(=O)N2c1c(F)cccc1F [149(c), 3-[8-(2,6-difluorophenyl)-2-(4-methyl-1-piperazinyl)-7-oxo-5,6,7,8-tetrahydropyrimido[4,5-d]pyrimidin-4-yl]-N,N,4-trimethylbenzamide]	159 to 162 °C
CCN(CC)C(=O)c1ccc(C)c(-c2nc(NCCN(C)C)nc3c2CNC(=O)N3c2c(F)cccc2F)c1 [156(c), 3-(8-(2,6-difluorophenyl)-2-{[2-(dimethylamino)ethyl]amino}-7-oxo-5,6,7,8-tetrahydropyrimido[4,5-d]pyrimidin-4-yl)-N,N-diethyl-4-methylbenzamide]	125 to 127 °C
Cc1ccc(NC(=O)c2ccsc2)cc1-c1nc(N(C)C)nc2c1CNC(=O)N2c1c(F)cccc1F [Example 12, N-{3-[8-(2,6-difluorophenyl)-2-(dimethylamino)-7-oxo-5,6,7,8-tetrahydropyrimido[4,5-d]pyrimidin-4-yl]-4-methylphenyl}-3-thiophenecarboxamide]	214 to 215 °C
CCOc1nc(-c2cc(NC(=O)c3ccsc3)ccc2C)c2c(n1)N(c1c(F)cccc1F)C(=O)NC2 [Example 13, N-{3-[8-(2,6-difluorophenyl)-2-(ethyloxy)-7-oxo-5,6,7,8-tetrahydropyrimido[4,5-d]pyrimidin-4-yl]-4-methylphenyl}-3-thiophenecarboxamide]	199 to 202 °C (dec.)
CNc1nc(-c2cc(NC(=O)c3ccsc3)ccc2C)c2c(n1)N(c1c(F)cccc1F)C(=O)NC2 [Example 14, N-{3-[8-(2,6-difluorophenyl)-2-(methylamino)-7-oxo-5,6,7,8-tetrahydropyrimido[4,5-d]pyrimidin-4-yl]-4-methylphenyl}-3-thiophenecarboxamide]	203 to 207 °C (dec.)
Cc1ccc(C(=O)NCc2ccccc2)cc1-c1nc(NC2CC(C)(C)NC(C)(C)C2)nc2c1CNC(=O)N2c1c(F)cccc1F [Example 16, 3-{8-(2,6-Difluorophenyl)-7-oxo-2-[(2,2,6,6-tetramethyl-4-piperidinyl)amino]-5,6,7,8-tetrahydropyrimido[4,5-d]pyrimidin-4-yl}-4-methyl-N-(phenylmethyl)benzamide]	160 to 165 °C (dec.)
Cc1ccc(C(=O)NCc2ccccc2)cc1-c1nc(NCCN(C)C)nc2c1CNC(=O)N2c1c(F)cccc1F [Example 18, 3-(8-(2,6-Difluorophenyl)-2-{[2-(dimethylamino)ethyl]amino}-7-oxo-5,6,7,8-tetrahydropyrimido[4,5-d]pyrimidin-4-yl)-4-methyl-N-(phenylmethyl)benzamide]	148 to 150 °C
Cc1ccc(C(=O)NCc2ccccc2)cc1-c1nc(NCCNC(C)C)nc2c1CNC(=O)N2c1c(F)cccc1F [Example 20, 3-[8-(2,6-Difluorophenyl)-2-({2-[(1-methylethyl)amino]ethyl}amino)-7-oxo-5,6,7,8-tetrahydropyrimido[4,5-d]pyrimidin-4-yl]-4-methyl-N-(phenylmethyl)benzamide]	133 to 137 °C
Cc1ccc(C(=O)NCc2ccccc2)cc1-c1nc(NC2CCN(C)CC2)nc2c1CNC(=O)N2c1c(F)cccc1F [Example 22, 3-{8-(2,6-Difluorophenyl)-2-[(1-methyl-4-piperidinyl)amino]-7-oxo-5,6,7,8-tetrahydropyrimido[4,5-d]pyrimidin-4-yl}-4-methyl-N-(phenylmethyl)benzamide]	152 to 154 °C (dec.)
CCOc1nc(-c2cc(NC(=O)c3ccc(C)c(F)c3)ccc2C)c2c(n1)N(c1c(F)cccc1F)C(=O)NC2 [Example 25, N-{3-[8-(2,6-difluorophenyl)-2-(ethyloxy)-7-oxo-5,6,7,8-tetrahydropyrimido[4,5-d]pyrimidin-4-yl]-4-methylphenyl}-3-fluoro-4-methylbenzamide]	257.3 to 262.5 °C
Cc1ccc(C(=O)Nc2ccc(C)c(-c3nc(NC4CCNCC4)nc4c3CNC(=O)N4c3c(F)cccc3F)c2)cc1F [Example 27(b), N-{3-[8-(2,6-difluorophenyl)-7-oxo-2-(4-piperidinylamino)-5,6,7,8-tetrahydropyrimido[4,5-d]pyrimidin-4-yl]-4-methylphenyl}-3-fluoro-4-methylbenzamide]	218 to 223.5 °C

Continued, values first:

melting point	Structure (SMILES)
146 to 150 °C (dec.)	Cc1ccc(C(=O)NCc2ccccc2)cc1-c1nc(N2CCC(N(C)C(=O)OC(C)(C)C)CC2)nc2c1CNC(=O)N2c1c(F)cccc1F [Example 147, 1,1-dimethylethyl {-[8-(2,6-difluorophenyl)-4-(2-methyl-5-{[(phenylmethyl)amino]carbonyl}phenyl)-7-oxo-5,6,7,8-tetrahydropyrimido[4,5-d]pyrimidin-2-yl]-4-piperidinyl}methylcarbamate]
138 to 142 °C	Cc1ccc(C(=O)N(C)C)cc1-c1nc(NCCN(C)C)nc2c1CNC(=O)N2c1c(F)cccc1F [Example 152, 3-(8-(2,6-difluorophenyl)-2-{[2-(dimethylamino)ethyl]amino}-7-oxo-5,6,7,8-tetrahydropyrimido[4,5-d]pyrimidin-4-yl)-NN,4-trimethylbenzamide]
130 to 133 °C	Cc1ccc(C(=O)N(C)C)cc1-c1nc(NCCNC(C)C)nc2c1CNC(=O)N2c1c(F)cccc1F [Example 153, 3-[8-(2,6-difluorophenyl)-2-({2-[(1-methylethyl)amino]ethyl}amino)-7-oxo-5,6,7,8-tetrahydropyrimido[4,5-d]pyrimidin-4-yl]-N,N,4-trimethylbenzamide]
114 to 118 °C	Cc1ccc(C(=O)N(C)C)cc1-c1nc(N(C)CCCN(C)C)nc2c1CNC(=O)N2c1c(F)cccc1F [Example 154, 3-{8-(2,6-difluorophenyl)-2-[[3-(dimethylamino)propyl](methyl)amino]-7-oxo-5,6,7,8-tetrahydropyrimido[4,5-d]pyrimidin-4-yl}-N,N,4-trimethylbenzamide]
163 to 165 °C	Cc1ccc(C(=O)N(C)C)cc1-c1nc(NC2CCN(C)CC2)nc2c1CNC(=O)N2c1c(F)cccc1F [Example 155, 3-{8-(2,6-difluorophenyl)-2-[(1-methyl-4-piperidinyl)amino]-7-oxo-5,6,7,8-tetrahydropyrimido[4,5-d]pyrimidin-4-yl}-N,N,4-trimethylbenzamide]
165 to 169 °C	CCN(CC)C(=O)c1ccc(C)c(-c2nc(NC3CCN(C)CC3)nc3c2CNC(=O)N3c2c(F)cccc2F)c1 [Example 159, 3-{8-(2,6-difluorophenyl)-2-[(1-methyl-4-piperidinyl)amino]-7-oxo-5,6,7,8-tetrahydropyrimido[4,5-d]pyrimidin-4-yl}-N,N-diethyl-4-methylbenzamide]
89 to 91 °C	CCN(CC)C(=O)c1ccc(C)c(-c2nc(NCCNC(C)C)nc3c2CNC(=O)N3c2c(F)cccc2F)c1 [Example 160, 3-[8-(2,6-difluorophenyl)-2-({2-[(1-methylethyl)amino]ethyl}amino)-7-oxo-5,6,7,8-tetrahydropyrimido[4,5-d]pyrimidin-4-yl]-N,N-diethyl-4-methylbenzamide]
106 to 108 °C	CCN(CC)C(=O)c1ccc(C)c(-c2nc(N(C)CCCN(C)C)nc3c2CNC(=O)N3c2c(F)cccc2F)c1 [Example 161, 3-{8-(2,6-difluorophenyl)-2-[[3-(dimethylamino)propyl](methyl)amino]-7-oxo-5,6,7,8-tetrahydropyrimido[4,5-d]pyrimidin-4-yl}-N,N-diethyl-4-methylbenzamide]
201 to 205 °C (dec.)	CCN(CC)C(=O)c1ccc(C)c(-c2nc(N3CCN(C)CC3)nc3c2CNC(=O)N3c2c(F)cccc2F)c1 [Example 162, 3-[8-(2,6-difluorophenyl)-2-(4-methyl-1-piperazinyl)-7-oxo-5,6,7,8-tetrahydropyrimido[4,5-d]pyrimidin-4-yl]-N,N-diethyl-4-methylbenzamide]
155 to 158 °C (dec.)	CNC(=O)c1ccc(C)c(-c2nc(NCCN(C)C)nc3c2CNC(=O)N3c2c(F)cccc2F)c1 [Example 163(c), 3-(8-(2,6-difluorophenyl)-2-{[2-(dimethylamino)ethyl]amino}-7-oxo-5,6,7,8-tetrahydropyrimido[4,5-d]pyrimidin-4-yl)-N,4-dimethylbenzamide]
136 to 139 °C (dec.)	CNC(=O)c1ccc(C)c(-c2nc(NCCNC(C)C)nc3c2CNC(=O)N3c2c(F)cccc2F)c1 [Example 167, 3-[8-(2,6-difluorophenyl)-2-({2-[(1-methylethyl)amino]ethyl}amino)-7-oxo-5,6,7,8-tetrahydropyrimido[4,5-d]pyrimidin-4-yl]-N,4-dimethylbenzamide]
153 to 157 °C (dec.)	CNC(=O)c1ccc(C)c(-c2nc(NCCCNC(C)C)nc3c2CNC(=O)N3c2c(F)cccc2F)c1 [Example 168, 3-[8-(2,6-difluorophenyl)-2-({3-[(1-methylethyl)amino]propyl}amino)-7-oxo-5,6,7,8-tetrahydropyrimido[4,5-d]pyrimidin-4-yl]-N,4-dimethylbenzamide]
164 to 168 °C (dec.)	CNC(=O)c1ccc(C)c(-c2nc(N3CCN(C)CC3)nc3c2CNC(=O)N3c2c(F)cccc2F)c1 [Example 169, 3-[8-(2,6-difluorophenyl)-2-(4-methyl-1-piperazinyl)-7-oxo-5,6,7,8-tetrahydropyrimido[4,5-d]pyrimidin-4-yl]-N,4-dimethylbenzamide]
166 to 170 °C (dec.)	CNC(=O)c1ccc(C)c(-c2nc(NCCCNC(C)(C)C)nc3c2CNC(=O)N3c2c(F)cccc2F)c1 [Example 170, 3-[8-(2,6-difluorophenyl)-2-({3-[(1,1-dimethylethyl)amino]propyl}amino)-7-oxo-5,6,7,8-tetrahydropyrimido[4,5-d]pyrimidin-4-yl]-N,4-dimethylbenzamide]
112 to 115 °C	CCCCN(CCCC)CCCNc1nc(-c2cc(C(=O)NC)ccc2C)c2c(n1)N(c1c(F)cccc1F)C(=O)NC2 [Example 171, 3-[2-{[3-(dibutylamino)propyl]amino}-8-(2,6-difluorophenyl)-7-oxo-5,6,7,8-tetrahydropyrimido[4,5-d]pyrimidin-4-yl]-N,4-dimethylbenzamide]
205 to 209 °C (dec.)	CNC(=O)c1ccc(C)c(-c2nc(NC3CCN(C)CC3)nc3c2CNC(=O)N3c2c(F)cccc2F)c1 [Example 173, 3-{8-(2,6-difluorophenyl)-2-[(1-methyl-4-piperidinyl)amino]-7-oxo-5,6,7,8-tetrahydropyrimido[4,5-d]pyrimidin-4-yl}-N,4-dimethylbenzamide]
